Measured values: ChEMBL document CHEMBL3882724 (2013)

Target: T1, CYP21 (steroid 21-hydroxylase) (Homo sapiens, UniProt P08686)
T1 sequence (P08686 whole entry): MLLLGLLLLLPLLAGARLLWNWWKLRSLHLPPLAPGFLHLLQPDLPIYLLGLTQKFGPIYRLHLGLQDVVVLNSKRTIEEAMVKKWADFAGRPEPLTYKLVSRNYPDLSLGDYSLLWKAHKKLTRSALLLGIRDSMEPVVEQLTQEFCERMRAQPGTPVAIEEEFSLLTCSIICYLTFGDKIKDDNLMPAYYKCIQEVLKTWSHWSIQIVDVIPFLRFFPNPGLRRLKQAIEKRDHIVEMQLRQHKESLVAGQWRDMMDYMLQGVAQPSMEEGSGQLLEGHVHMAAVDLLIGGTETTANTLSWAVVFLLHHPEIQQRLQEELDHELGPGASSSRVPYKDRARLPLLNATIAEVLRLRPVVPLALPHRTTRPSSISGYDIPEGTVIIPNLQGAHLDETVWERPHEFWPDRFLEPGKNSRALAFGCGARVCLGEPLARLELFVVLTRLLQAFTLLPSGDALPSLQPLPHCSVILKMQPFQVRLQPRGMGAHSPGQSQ
Assay: Inhibition of human CYP21 transfected in HEK293 cells assessed as decrease in conversion of progesterone to 11-deoxycorticosterone preincubated for 5 hrs followed by progesterone addition measured after 20 hrs by ELISA
Format: cell-based
Parameters: concentration or dose not given beside the values
Conditions: HEK293 cells transfected with human CYP21, probe progesterone

Row | SMILES | inhibition at 20 h
1 | C[C@]1(O)CC[C@@]2(C)C(=CC[C@@H]3[C@@H]2CC[C@]2(C)C(c4cncc(F)c4)=CC[C@@H]32)C1 | 10 to 50%
2 | CC1C[C@@]2(C)C(CC[C@@H]3[C@@H]2CC[C@]2(C)C(c4cccnc4)=CC[C@@H]32)C(C)C1O (stereo partly specified) | 10 to 50%
3 | C[C@]12CCC(=O)C=C1CC[C@@H]1[C@@H]2CC[C@]2(C)C(c3cncc(C(F)F)c3)=CC[C@@H]12 | 10 to 50%
4 | C[C@]12CC[C@@H](NS(=O)(=O)C3CC3)CC1=CC[C@@H]1[C@@H]2CC[C@]2(C)C(c3cccnc3)=CC[C@@H]12 | 10 to 50%
5 | CC1C[C@@H]2[C@H](CC[C@]3(C)C(c4cccnc4)=CC[C@@H]23)[C@@]2(C)C=C/C(=N\O)C=C12 (stereo partly specified) | 10 to 50%
6 | COC1CC[C@@]2(C)C(=CC[C@@H]3[C@@H]2CC[C@]2(C)C(c4cncc(C)c4)=CC[C@@H]32)C1 (stereo partly specified) | < 10%
7 | C[C@]12CCNC(=O)CC1CC[C@@H]1[C@@H]2CC[C@]2(C)C(c3cncc(F)c3)=CC[C@@H]12 (stereo partly specified) | 10 to 50%
8 | C[C@]12CC[C@H]3[C@@H](CC(Nc4nccs4)C45CC4CC[C@]35C)[C@@H]1CC=C2c1cccnc1 (stereo partly specified) | 10 to 50%
9 | CCNC(=O)N[C@@H]1CC[C@@]2(C)C(CC[C@@H]3[C@@H]2CC[C@]2(C)C(n4ccnc4)=CC[C@@H]32)C1 (stereo partly specified) | ≥ 50%
10 | CC1C[C@@H]2[C@H](CC[C@]3(C)C(c4cncc(C(F)F)c4)=CC[C@@H]23)[C@@]2(C)C=CC(=O)C=C12 (stereo partly specified) | 10 to 50%
11 | CCC(=O)O[C@H]1CC[C@@]2(C)C(=CC[C@H]3C4=CC=C(c5cccnc5)[C@@]4(C)CC[C@@H]32)C1 | 10 to 50%
12 | C[C@]12CCC(O)(CCCO)CC1CC[C@@H]1[C@@H]2CC[C@]2(C)C(c3cccnc3)=CC[C@@H]12 (stereo partly specified) | 10 to 50%
13 | C[C@@]1(O)CC[C@@]2(C)C(CC[C@@H]3[C@@H]2CC[C@]2(C)C(c4cncc(Cl)c4)=CC[C@@H]32)C1 (stereo partly specified) | 10 to 50%
14 | C[C@]12CC[C@H]3[C@@H](CCC4=CC(=O)CC[C@@]43C)C1=CC=C2c1cncc(Cl)c1 | 10 to 50%
15 | CC1(C)C2=CC[C@@H]3[C@H](CC[C@]4(C)C(c5cccnc5)=CC[C@@H]34)[C@@]2(C)CC/C1=N\O | < 10%
16 | C[C@@]1(O)CC[C@@]2(C)C(CC[C@@H]3[C@@H]2CC[C@]2(C)C(c4cccnc4)=CC[C@@H]32)C1 (stereo partly specified) | < 10%

Row | SMILES | inhibition at 20 h
17 | C[C@@H]1C2CC[C@@H]3[C@H](CC[C@]4(C)C(c5cncc(C(F)F)c5)=CC[C@@H]34)[C@@]2(C)CC[C@H]1O (stereo partly specified) | < 10%
18 | CCc1ccncc1C1=CC=C2[C@@H]3CCC4CC(=O)CC[C@]4(C)[C@H]3CC[C@]12C (stereo partly specified) | 10 to 50%
19 | C[C@]12CCC(=O)C=C1C(C1CC1)C[C@@H]1[C@@H]2CC[C@]2(C)C(c3cccnc3)=CC[C@@H]12 (stereo partly specified) | < 10%
20 | CC1C[C@H]2[C@@H]3CC=C(c4cncc(F)c4)[C@@]3(C)CC[C@@H]2[C@@]2(C)CC[C@H](O)CC12O (stereo partly specified) | 10 to 50%
21 | CC1CC2[C@H](CC[C@]3(C)C(c4cccnc4)=CC[C@@H]23)[C@@]2(C)CCC(C)(O)C=C12 (stereo partly specified) | 10 to 50%
22 | Cc1cc(C2=CC[C@H]3[C@@H]4CC=C5C[C@@H](O)CC[C@]5(C)[C@H]4CC[C@]23C)cnc1F | < 10%
23 | CC1C(O)CC[C@@]2(C)C1CC[C@@H]1[C@@H]2CC[C@]2(C)C(c3cncc(F)c3)=CC[C@@H]12 (stereo partly specified) | < 10%
24 | Cc1ccncc1C(=O)O[C@H]1CC[C@@]2(C)C(=CC[C@H]3C4=CC=C(c5cccnc5)[C@@]4(C)CC[C@@H]32)C1 | 10 to 50%
25 | CN1C(=O)CC[C@@]2(C)C1=CC[C@@H]1[C@@H]2CC[C@]2(C)C(c3cnccc3F)=CC[C@@H]12 | 10 to 50%
26 | C[C@]12CC[C@H]3[C@@H](CCC45CC4C(O)CC[C@]35C)[C@@H]1CC=C2c1cncc(F)c1 (stereo partly specified) | 10 to 50%
27 | Cc1cnc(F)c(C2=CC[C@H]3[C@@H]4CCC5=CC(=O)CC[C@]5(C)[C@H]4CC[C@]23C)c1 | 10 to 50%
28 | Cc1ccncc1C1=CC=C2[C@@H]3CC[C@H]4CC(=O)NCC[C@]4(C)[C@H]3CC[C@]12C | 10 to 50%
29 | CC1C[C@H]2C3=CC=C(c4cncc(C(F)F)c4)[C@@]3(C)CC[C@@H]2[C@@]2(C)CCC(=O)C=C12 (stereo partly specified) | < 10%
30 | C[C@]12CC[C@H]3[C@@H](CC(c4ccccc4)C4=CC(=O)CC[C@@]43C)C1=CC=C2c1cccnc1 (stereo partly specified) | 10 to 50%
31 | C[C@]12CC[C@H](O)CC1=CC[C@@H]1[C@@H]2CC[C@]2(C)C(c3cncc(C#N)c3)=CC[C@@H]12 | 10 to 50%

Continued, values first:

Row | inhibition at 20 h | SMILES
32 | 10 to 50% | C[C@]12CC[C@@H](NC(=O)c3nccs3)CC1=CC[C@@H]1[C@@H]2CC[C@]2(C)C(n3ccnc3)=CC[C@@H]12
33 | < 10% | CC(=O)Nc1cncc(C2=CC[C@H]3[C@@H]4CC=C5C[C@@H](O)CC[C@]5(C)[C@H]4CC[C@]23C)c1
34 | < 10% | C[C@]12CC[C@H](O)CC1=CC[C@@H]1[C@@H]2CC[C@]2(C)C(c3cncc(NS(C)(=O)=O)c3)=CC[C@@H]12
35 | 10 to 50% | CCNC(=O)N[C@@H]1CC[C@@]2(C)C(=CC[C@@H]3[C@@H]2CC[C@]2(C)C(c4cncc(F)c4)=CC[C@@H]32)C1
36 | 10 to 50% | C[C@]12CC[C@@H](NC(=O)c3nccs3)CC1=CC[C@@H]1[C@@H]2CC[C@]2(C)C(c3cccnc3)=CC[C@@H]12
37 | 10 to 50% | Cc1ccncc1C1=CC[C@H]2[C@@H]3CC[C@H]4CNC(=O)CC[C@]4(C)[C@H]3CC[C@]12C
38 | 10 to 50% | CCc1ccncc1C1=CC=C2[C@@H]3CCC4CNC(=O)CC[C@]4(C)[C@H]3CC[C@]12C (stereo partly specified)
39 | 10 to 50% | C[C@H]1C2CC[C@@H]3[C@H](CC[C@]4(C)C(c5cncc(C(F)F)c5)=CC[C@@H]34)[C@@]2(C)CC[C@@H]1O (stereo partly specified)
40 | 10 to 50% | C[C@]12CC[C@H]3[C@@H](CC=C4C[C@@H](OC(=O)Nc5cccnc5)CC[C@@]43C)C1=CC=C2c1cccnc1
41 | 10 to 50% | COc1cncc(C2=CC[C@H]3[C@@H]4CC[C@H]5C[C@@H](OC)CC[C@]5(C)[C@H]4CC[C@]23C)c1
42 | 10 to 50% | CC(C)(C)C(=O)O[C@H]1CC[C@@]2(C)C(=CC[C@H]3C4=CC=C(c5cccnc5)[C@@]4(C)CC[C@@H]32)C1
43 | 10 to 50% | CC1C[C@@H]2[C@H](CC[C@]3(C)C(c4cccnc4)=CC[C@@H]23)[C@@]2(C)CC[C@@](C)(O)CC12 (stereo partly specified)
44 | ≥ 50% | C[C@]12CC[C@H]3[C@@H](CC4OC45C[C@@H](O)CC[C@]35C)C1=CC=C2c1cccnc1 (stereo partly specified)
45 | 10 to 50% | CNC1CC[C@@]2(C)[C@@H](CC[C@@H]3[C@@H]2CC[C@]2(C)C(c4cccnc4)=CC[C@@H]32)C1 (stereo partly specified)
46 | < 10% | C[C@]12CC[C@H]3[C@@H](CCC45CC4NC(=O)CC[C@]35C)[C@@H]1CC=C2c1cccnc1 (stereo partly specified)
47 | 10 to 50% | C[C@]12CC[C@@H](N=[N+]=[N-])CC1CC[C@@H]1[C@@H]2CC[C@]2(C)C(c3cccnc3)=CC[C@@H]12 (stereo partly specified)
48 | 10 to 50% | CCc1ccncc1C1=CC=C2[C@@H]3CCC4C[C@@H](OC(C)=O)CC[C@]4(C)[C@H]3CC[C@]12C (stereo partly specified)
49 | 10 to 50% | C[C@]12CC[C@H]3[C@@H](CC=C4C=CCC[C@@]43C)C1=CC=C2c1cccnc1
50 | ≥ 50% | C[C@]1(O)CC[C@@]2(C)C(=CC[C@@H]3[C@@H]2CC[C@]2(C)C(c4cccnc4)=CC[C@@H]32)C1
51 | 10 to 50% | CN1CCC(C(=O)O[C@H]2CC[C@@]3(C)C(=CC[C@H]4C5=CC=C(c6cccnc6)[C@@]5(C)CC[C@@H]43)C2)CC1
52 | < 10% | CCNC(=O)O[C@H]1CC[C@@]2(C)C(=CC[C@H]3C4=CC=C(c5cccnc5)[C@@]4(C)CC[C@@H]32)C1
53 | 10 to 50% | CCc1ccncc1C1=CC[C@H]2[C@@H]3CC[C@H]4CC(=O)NCC[C@]4(C)[C@H]3CC[C@]12C
54 | 10 to 50% | C[C@]12CC(F)(F)CC1CC[C@@H]1[C@@H]2CC[C@]2(C)C(c3cccnc3)=CC[C@@H]12 (stereo partly specified)
55 | 10 to 50% | C[C@]12CC[C@H]3[C@@H](CC=C4C[C@@H](O)CC[C@@]43C)C1=CC=C2c1cncc(Cl)c1
56 | 10 to 50% | CCNC(=S)N[C@@H]1CC[C@@]2(C)C(=CC[C@@H]3[C@@H]2CC[C@]2(C)C(c4cccnc4)=CC[C@@H]32)C1
57 | < 10% | CN1C(=O)CC[C@@]2(C)C1=CC[C@@H]1[C@@H]2CC[C@]2(C)C(c3cncc(C(F)F)c3)=CC[C@@H]12
58 | 10 to 50% | CC1=C2CC[C@@H]3[C@H](CC[C@]4(C)C(c5cccnc5)=CC[C@@H]34)[C@@]2(C)CC/C1=N\O
59 | 10 to 50% | Cc1ccncc1C1=CC=C2C3CCC4C[C@@H](O)CC[C@]4(C)C3CC[C@]12C (stereo partly specified)
60 | 10 to 50% | C[C@]12CC[C@H](NC(=O)C(F)(F)F)CC1CC[C@@H]1[C@@H]2CC[C@]2(C)C(c3cccnc3)=CC[C@@H]12 (stereo partly specified)
61 | < 10% | C[C@]12CCC3(CCC(=O)O3)CC1CC[C@@H]1[C@@H]2CC[C@]2(C)C(c3cccnc3)=CC[C@@H]12 (stereo partly specified)
